Measurements published in PMC12081876, “Identification of PTGR2 inhibitors as a new therapeutic strategy for diabetes and obesity” (EMBO Molecular Medicine, 2025).
Where “and” joins values, the source holds several entries; their conditions need not be identical. Equal values may be shown once.

What was measured:
[1] = tested on: PPARγ lysine acetylation; assay: Cell-based PPARγ acetylation assay; design: species or system mouse; conditions: cultured adipocytes
Method: One day after achieving 100% confluence, 3T3-L1 cells were induced differentiation with 0.5 mM IBMX, 1 µm dexamethasone and 10 μg/mL insulin in DMEM containing 10% FBS for 2 days and maintained differentiation in DMEM supplemented with 10 μg/mL insulin and 10% FBS for 6 days. The medium was changed every 2 days. […] Cells were harvested and lysed in RIPA buffer supplemented with 1X cOmplete™, EDTA-free Protease Inhibitor Cocktail (cat. no. 04693132001, Roche) and 1X PhosSTOP™ (cat. no. 4906845001, Roche). The protein concentrations of cell lysates were measured by Bradford reagent (cat. no. BP500-0006, Bio-Rad). The protein samples were performed immunoprecipitation with magnetic beads (Protein G Mag Sepharose™, Cytiva). Briefly, 200 μg of protein samples were incubated in 500 μl of PBS buffer containing 1 μg of anti-PPARγ antibody or 1 μg of anti-rabbit IgG antibody with gentle rotation at 4 °C overnight. On the next day, PBS-washed beads were incubated with overnight mixture of protein sample and antibody at 4 °C for 1 h with gentle rotation. Then the beads were washed three times with 1000 μl of PBS and harvested with centrifugation at 4 °C and 10,000 × g for 5 min. […] Acetylation level of PPARγ was analyzed using Image J software and normalized against PPARγ.

[2] = Necropsy, gross and histopathological examination; type: in vivo, mouse; design: key to Brain, Forebrain / Brain, Cerebellum and Pons / Heart: Vacuolation, cardiomyocyte / Lung: Alveolar epithelium hyperplasia / Lung: Chronic inflammation, focal / Liver: Hepatocellular adenoma, multiple / Brain, Midbrain / Kidney: Hyaline cast, renal tubule / Kidney: Cytoplasmic vacuolation, renal tubule / Kidney: Mineralization, renal tubule / Pancreas: Atrophy and accumulation adipocyte, acinar cell / Pancreas: Pancreatic islets hyperplasia / Pancreas: Lymphocytic infiltration, perivascular / Brown fat: Increased adipocyte size / White fat (Perigonadal fat) / Bone marrow, Sternum/ Femur / Bone marrow: Mineralization, focal / Bone marrow: Cellularity, decreased, bone marrow: + = Present; - =Not present; X=Not remarkable lesion; 1 = minimal (< 1%); 2 = mild (1–25%); 3 = moderate (26–50%); 4 = moderately severe (51–75%); 5 = severe/high (76–100%); conditions: for overall toxicity / pathology conclusion: mice treated 26 weeks
Method: The animals were sacrificed by exsanguination under anesthesia with pure carbon dioxide.
At necropsy, tissue samples of the submitted mice were collected and preserved in 10% neutral buffered formalin. The required tissues/organs of animals were trimmed, processed, and embedded in paraffin. Sections 3–5 μm in thickness were cut and put on slides for hematoxylin and eosin (H&E) staining. The histopathological evaluation was performed on the submitted tissues. Severity of lesions was graded according to the methods described (Shackelford et al, [2002]). Degrees of lesions were graded histopathologically from one to five depending on severity (1 = minimal; 2 = slight; 3 = moderate; 4 = moderately severe; 5 = severe/high).

[3] = Test group, one animal, 26 weeks
[4] = Test group, one value per animal, 26 weeks

## CCCCCC(=O)/C=C/[C@H]1[C@H](O)CC(=O)[C@@H]1C/C=C\CCCC(=O)O [15-keto-PGE2, 15-keto-prostaglandin E2]
[1]
  acetylation of the PPARγ LBD: no altered acetylation of the PPARγ LBD

## Cc1[nH]c2nc(C(C)N3CCN(c4ccccc4)CC3)nn2c(=O)c1Cc1ccc(F)cc1 (centres unmarked) [BPRPT0245]
[2]; 26 weeks, vs vehicle
  Pathological examination of bone marrow, brain, heart, lung, kidney, pancreas, brown fat, perigonadal fat: no significant difference
[2]; Test group, first two animals, 26 weeks
  White fat (Perigonadal fat): X
[2]; Test group, last two animals, 26 weeks
  White fat (Perigonadal fat): Inflammatory cell infiltration: 1 (1 = minimal (< 1%)) and 2 (2 = mild (1–25%))
[2]; [3]
  Bone marrow: Cellularity, decreased, bone marrow: -
  Bone marrow: Infiltration, lymphocyte: 1 (1 = minimal (< 1%))
  Bone marrow: Mineralization, focal: -
[2]; Test group, one value per animal (T1,T2,T2[sic],T4), 26 weeks
  Brain, Forebrain: X
[2]; [4]
  Brain, Cerebellum and Pons: X
  Brain, Midbrain: X
  Brown fat: Increased adipocyte size: +
  Heart: Inflammatory cell infiltration/Cardiomyopathy: 2 (2 = mild (1–25%)) (3×) and 1 (1 = minimal (< 1%))
  Heart: Vacuolation, cardiomyocyte: - (3×) and 2 (2 = mild (1–25%))
  Kidney: Cytoplasmic vacuolation, renal tubule: 2 (2 = mild (1–25%)) (3×) and -
  Kidney: Hyaline cast, renal tubule: 1 (1 = minimal (< 1%)) and - (3×)
  Kidney: Inflammatory cell infiltration, peripelvic /perivacscular: 2 (2 = mild (1–25%)) (3×) and 1 (1 = minimal (< 1%))
  Kidney: Mineralization, renal tubule: 1 (1 = minimal (< 1%)) and - (3×)
  Kidney: Tubular degeneration/regeneration with inflammatory cell infiltration: 2 (2 = mild (1–25%))
  Liver: Hepatocellular adenoma, multiple: -
  Liver: Inflammation: 1 (1 = minimal (< 1%)) (2×) and 2 (2 = mild (1–25%)) (2×)
  Liver: Lymphocytic cell infiltration, perivascular: 1 (1 = minimal (< 1%)) (2×) and 2 (2 = mild (1–25%)) (2×)
  Liver: Steatosis: 2 (2 = mild (1–25%)) (2×) and 4 (4 = moderately severe (51–75%)) (2×)
  Lung: Alveolar epithelium hyperplasia: 2 (2 = mild (1–25%)) and - (3×)
  Lung: Chronic inflammation, focal: 1 (1 = minimal (< 1%)) (2×) and - (2×)
  Lung: Inflammatory cell infiltration, perivascular: 1 (1 = minimal (< 1%)) (2×) and 2 (2 = mild (1–25%)) (2×)
  Pancreas: Atrophy and accumulation adipocyte, acinar cell: -
  Pancreas: Fat infiltration, exocrine: 2 (2 = mild (1–25%)) (2×) and 1 (1 = minimal (< 1%)) (2×)
  Pancreas: Lymphocytic infiltration, perivascular: - (2×) and 2 (2 = mild (1–25%)) (2×)
  Pancreas: Pancreatic islets hyperplasia: 1 (1 = minimal (< 1%)) (2×) and - (2×)
[2]; Test group, three animals, 26 weeks
  Bone marrow, Sternum/ Femur: X
[2]
  overall toxicity / pathology conclusion: no detectable toxicity
[2]; listed as test article
  overall toxicity / pathology conclusion: not related
